Measured values reported in patent publication US20080287479A1, “INHIBITORS OF SERINE PALMITOYLTRANSFERASE” (Pfizer Inc, priority 2006, published 2008).
Structures can show the parent of a compound that is named as a salt. Where two headings read alike, the source gives them in different places.

Target: T1, Serine Palmitoyl Transferase (SPT); microsomes from HEK 293 cells stably transfected with human LCB2 subunit of SPT (Homo sapiens, UniProt O15270)
T1 construct: expressed in transfected cells; host or cells: HEK 293 cells stably transfected with LCB2; microsomal fraction
T1 sequence (O15270 1-562): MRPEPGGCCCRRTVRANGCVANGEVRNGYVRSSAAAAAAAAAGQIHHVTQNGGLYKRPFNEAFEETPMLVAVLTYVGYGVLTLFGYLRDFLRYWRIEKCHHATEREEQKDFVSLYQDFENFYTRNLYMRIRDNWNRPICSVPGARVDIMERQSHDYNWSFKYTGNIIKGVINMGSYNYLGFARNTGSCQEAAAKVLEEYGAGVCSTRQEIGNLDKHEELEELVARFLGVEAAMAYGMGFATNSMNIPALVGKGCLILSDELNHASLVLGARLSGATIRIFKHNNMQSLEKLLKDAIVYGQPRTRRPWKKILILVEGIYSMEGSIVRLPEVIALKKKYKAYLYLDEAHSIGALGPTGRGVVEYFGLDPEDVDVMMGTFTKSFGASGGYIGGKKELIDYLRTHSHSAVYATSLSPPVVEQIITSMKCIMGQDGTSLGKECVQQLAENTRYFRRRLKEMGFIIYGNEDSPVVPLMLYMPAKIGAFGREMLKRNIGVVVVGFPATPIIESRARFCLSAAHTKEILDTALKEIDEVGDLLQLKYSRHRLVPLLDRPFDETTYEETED
T1 sequence (O15269 1-473 partner): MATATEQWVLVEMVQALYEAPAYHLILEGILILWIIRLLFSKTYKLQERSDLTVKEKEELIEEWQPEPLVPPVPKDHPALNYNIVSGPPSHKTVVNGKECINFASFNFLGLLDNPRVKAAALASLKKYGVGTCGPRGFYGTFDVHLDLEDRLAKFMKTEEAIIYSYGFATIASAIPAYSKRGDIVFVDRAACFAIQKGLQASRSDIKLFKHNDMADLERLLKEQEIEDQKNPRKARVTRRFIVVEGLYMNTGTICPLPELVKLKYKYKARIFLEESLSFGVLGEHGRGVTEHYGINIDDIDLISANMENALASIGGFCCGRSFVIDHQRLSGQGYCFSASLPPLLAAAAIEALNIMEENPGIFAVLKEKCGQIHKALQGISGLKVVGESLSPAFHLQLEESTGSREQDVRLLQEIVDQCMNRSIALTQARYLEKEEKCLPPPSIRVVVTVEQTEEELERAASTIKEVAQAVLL
T1 sequence (Q969W0 1-71 partner): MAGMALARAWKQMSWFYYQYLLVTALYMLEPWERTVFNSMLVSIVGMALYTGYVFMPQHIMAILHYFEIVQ
Test: SPT flashplate assay
Type: biochemical

[1] = microsomes of HEK 293 LCB2 cells, 3H-serine and palmitoyl CoA, phospholipid coated flashplate, 18-24 hours at room temperature, read-out: SPTISF IC50

Row | Structure (SMILES) | IC50 (SPTISF IC50 (nM)) [nM] | IC50 [1] [nM]
1 | CNC(=O)c1ccc2c(c1)CC(=O)N2C1CCN(CC(=O)N2CCC(C)(C)CC2)CC1 [Example 23, 1-[2-(4,4-dimethylpiperidin-1-yl)-2-oxoethyl]-4-{5-[(methylamino)carbonyl]-2-oxo-2,3-dihydro-1H-indol-1-yl}piperidinium chloride] | 8.4 | 
2 | C=C1CCN(C(=O)CN2CCC(n3c(=O)[nH]c4cc(C(=O)NC)c(F)cc43)CC2)CC1 [Example 29, 6-fluoro-N-methyl-1-{1-[2-(4-methylonepiperidin-1-yl)-2-oxoethyl]piperidin-4-yl}-2-oxo-2,3-dihydro-1H-benzimidazole-5-carboxamide] |  | 9.4
3 | CC1(C)CCN(C(=O)CN2CCC(n3c(=O)[nH]c4cc(S(C)(=O)=O)ccc43)CC2)CC1 [Example 40, 1-{1-[2-(4,4-dimethylpiperidin-1-yl)-2-oxoethyl]piperidin-4-yl}-5-(methylsulfonyl)-1,3-dihydro-2H-benzimidazol-2-one hydrochloride] |  | 12.9
4 | CC(C)(C)C1CCC(C(=O)CN2CCC(n3c(=O)[nH]c4cc(S(C)(=O)=O)ccc43)CC2)CC1 (stereo not drawn) [Example 45, 1-{1-[2-(4-tert-butylcyclohexyl)-2-oxoethyl]piperidin-4-yl}-5-(methylsulfonyl)-1,3-dihydro-2H-benzimidazol-2-one] |  | 333
5 | CNC(=O)c1cc2[nH]c(=O)n(C3CCN(CC(=O)N4CCC5(CC4)CC5)CC3)c2cc1F [Example 28, 1-{1-[2-(6-azaspiro[2.5]oct-6-yl)-2-oxoethyl]piperidin-4-yl}-6-fluoro-N-methyl-2-oxo-2,3-dihydro-1H-benzimidazole-5-carboxamide] |  | 12.9
6 | CNC(=O)c1cc2c(cc1F)N(C1CCN(CC(=O)N3C[C@H]4CCC[C@H]4C3)CC1)C(=O)C2 [Example 21, 4-{6-fluoro-5-[(methylamino)carbonyl]-2-oxo-2,3-dihydro-1H-indol-1-yl}-1-{2-[(3aR,6aS)-hexahydrocyclopenta[c]pyrrol-2(1H)-yl]-2-oxoethyl}piperidinium chloride] | 14.6 | 
7 | CNC(=O)c1cc2[nH]c(=O)n(C3CCN(CC(=O)N4CCC(C)(C)CC4)CC3)c2cc1F [Example 26, 1-[2-(4,4-dimethylpiperidin-1-yl)-2-oxoethyl]-4-{6-fluoro-5-[(methylamino)carbonyl]-2-oxo-2,3-dihydro-1H-benzimidazol-1-yl}piperidinium chloride] |  | 7.5
8 | CCNC(=O)c1ccc2c(c1)n(C)c(=O)n2C1CCN(CC(=O)N2CCC(C)(C)CC2)CC1 [Example 33, 1-[2-(4,4-dimethylpiperidin-1-yl)-2-oxoethyl]-4-{5-[(ethylamino)carbonyl]-3-methyl-2-oxo-2,3-dihydro-1H-benzimidazol-1-yl}piperidinium chloride] |  | 59.1
9 | CNC(=O)c1cc2[nH]c(=O)n(C3CC4CCC(C3)N4CC(=O)N3CCC(C)(OC)CC3)c2cc1F (stereo not drawn) [Example 49, 6-fluoro-1-{8-[2-(4-methoxy-4-methylpiperidin-1-yl)-2-oxoethyl]-8-azabicyclo[3.2.1]oct-3-yl}-N-methyl-2-oxo-2,3-dihydro-1H-benzimidazole-5-carboxamide trifluloroacetate] |  | 165
10 | CNC(=O)c1cc2[nH]c(=O)n(C3CCN(CC(=O)C4CCC(C(C)(C)C)CC4)CC3)c2cc1F (stereo not drawn) [Example 14, 1-{1-[2-(4-tert-butylcyclohexyl)-2-oxoethyl]piperidin-4-yl}-6-fluoro-N-methyl-2-oxo-2,3-dihydro-1H-benzimidazole-5-carboxamide] |  | 106
11 | CNC(=O)c1ccc2c(c1)CC(=O)N2C1CCN(CC(=O)N2CCC(C)(OC)CC2)CC1 [Example 19, 1-[2-(4-methoxy-4-methylpiperidin-1-yl)-2-oxoethyl]-4-{5-[(methylamino)carbonyl]-2-oxo-2,3-dihydro-1H-indol-1-yl}piperidinium chloride] | 18.7 | 
12 | CC1CCC(C(=O)CN2CCC(n3c(=O)[nH]c4cc(S(C)(=O)=O)ccc43)CC2)CC1 (stereo not drawn) [Example 42, 1-{1-[2-(4-methylcyclohexyl)-2-oxoethyl]piperidin-4-yl}-5-(methylsulfonyl)-1,3-dihydro-2H-benzimidazol-2-one] |  | 59
